Assay results as given in patent US20260317344A1, “EGFR INHIBITORS FOR TREATING DISEASE” (BLOSSOMHILL THERAPEUTICS, INC., priority 2023, published 2026).

Experiments:
[1] = test system: BaF3 cells with engineered EGFR L858R/C797S; assay: 3-Day CellTiter Glo (CTG) cell proliferation assay, BaF3 EGFR L858R/C797S; format: cell-based; details: Mus musculus, 3-day CTG proliferation, 72 hours
Description: (§1) 3-DAY CellTiter Glo (CTG) Cell Proliferation Assays (BaF3 Cell Lines)
(§2) Cell proliferation assays were carried out in BaF3 cells engineered with EGFR mutations. BaF3 cells with engineered EGFR L858R/T790M/C797S, EGFR L858R/C797S, or EGFR d746-750/T790M transgene, one thousand cells/50 μL per well were seeded in white 384-well plate, followed by treatment with indicated compounds in a 9-dose dilution series using TECAN d300e liquid dispenser. Cells were incubated with compounds for 72 hours at 37° C. and 5% CO2. Cell proliferation was measured using CellTiter-Gbo 2.0 luciferase-based ATP detection assay (Promega, Madison, WI) at 18 μL per well following the manufacturer's protocol. Plates were then read on a TECAN Sparks multimode microplate reader. Data was analyzed using GraphPad Prism 9 (GraphiPad Software, San Diego, CA) to obtain IC50 values.

[2] = target: T1, pEGFR, A431 cells (wildtype EGFR) (Homo sapiens, UniProt P00533); assay: Cellular EGFR phosphorylation assay (LANCE Ultra TR-FRET) in A431 cells; format: cell-based; details: 4 hours at 37° C., 40 ng/mL EGF for the final 10 minutes, read-out: A431 pEGFR IC50
T1 construct: pEGFR (Tyr1068) TR-FRET
Description: (§3) Cellular EGFR Phosphorylation Assays
(§4) EGFR phosphorylation assays were conducted in NSCLC cells with EGFR activation mutations. PC-9 cells (purchased from Aldrich-Sigma) carry a Glu746-Ala750 deletion (d746-750) mutation in exon 19 of the EGFR gene and NCI-H1975 cells (purchased from ATCC) carry both L858R activation mutation and T790M gatekeeper mutation in the EGFR gene. A431 cells (purchased from ATCC) with amplification of wildtype EGFR, derived from epidermoid carcinoma, were used to measure the activity against wildtype EGFR. All cells were seeded in 96-well plates. For PC-9 and NCI-H1975 cells, 50 thousand cells were seeded per well. For A431 cells, 30 thousand cells were seeded per well. The next day, cells were exposed to compound for 4 hours at 37° C. and 5% CO2. Compounds were diluted in DMSO and added to cells in a 9-dose, 3-fold dilution, titration curve using TECAN d300e liquid dispenser. For A431 cells, 40 ng/mL of EGF was added to the media for the final 10 minutes of incubation. EGFR phosphorylation was measured using phospho-EGFR (Try1068) LANCE Ultra TR-FRET Detection Kit (TRF4015M) from PerkinElmer according to manufacturer's instructions. In brief, cells were lysed with 40 μL of lysis buffer plus 1× Halt protease and phosphatase inhibitor cocktail (Thermo 78441) and by incubation at room temperature for 1 h on a microplate shaker (350 rpm). 15 μ L of cell lysate was transferred to 384-well white plate and 5 μL of Europium- and ULight-labeled antibodies diluted in 1× detection buffer was added to each well. After 4-6 hours of incubation at room temperature, plates were then read on a TECAN Sparks multimode microplate reader. Data was analyzed using GraphPad Prism 9 (GraphPad Software, San Diego, CA) to obtain IC50 values.

EGFR (D746-750/C797S) = EGFR (D746-750/C797S) (Homo sapiens, UniProt P00533, C797S/DEL746-750); assay: HotSpot radiometric kinase assay, inhibition of EGFR 746-750/C797S mutant; format: biochemical; details: 33P ATP, room temperature, 120 m
Description: (§5) Biochemical Assays for inhibition of wild-type and mutant EGFRs
(§6) Briefly, specific kinase/substrate pairs along with required cofactors were prepared in reaction buffer; 20 mM HEPES pH 7.5, 10 mM […], 1 mM EGTA, 0.02% Brij35, 0.02 mg/ml BSA, 0.1 mM Na3VO4, 2 mM DTT, 1% DMSO. Compounds were delivered into the reaction, followed ~20 minutes later by addition of a mixture of ATP (Sigma, St. Louis MO) and ^33P ATP (Perkin Elmer, Waltham MA) to a final concentration of […]. Reactions were carried out at room temperature for 120 m, followed by spotting of the reactions onto P81 ion exchange filter paper (Whatman Inc., Piscataway, NJ). Unbound phosphate was removed by extensive washing of filters in 0.75% phosphoric acid. […] IC50 values and curve fits were obtained using Prism (GraphPad Software).

EGFR (D746-750) = EGFR (D746-750) (Homo sapiens, UniProt P00533, DEL746-750); assay: HotSpot radiometric kinase assay, inhibition of EGFR 746-750 mutant; format: biochemical; details: 33P ATP, room temperature, 120 m
Description: as §5, §6

[3] = test system: BaF3 cells with engineered EGFR L858R/T790M/C797S; assay: 3-Day CellTiter Glo (CTG) cell proliferation assay, BaF3 EGFR L858R/T790M/C797S; format: cell-based; details: Mus musculus, 3-day CTG proliferation, 72 hours
Description: as §1, §2

[4] = target: T2, pEGFR, NCI-H1975 cells (L858R/T790M EGFR) (Homo sapiens, UniProt P00533, L858R/T790M); assay: Cellular EGFR phosphorylation assay (LANCE Ultra TR-FRET) in NCI-H1975 cells; format: cell-based; details: 4 hours at 37° C., read-out: H1975 pEGFR IC50
T2 construct: pEGFR (Tyr1068) TR-FRET
Description: as §3, §4

NCI-H1975 cells = assay: 5-Day CellTiter Glo (CTG) cell proliferation assay, NCI-H1975; format: cell-based; details: Homo sapiens; NCI-H1975 cells (L858R/T790M EGFR), 5-day CTG proliferation, 120 hours; read-out: H1975 IC50
Method in brief: (§7)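 Luminescent ATP signal (CellTiter-Glo 2.0) after 120 hours of compound exposure gave IC50 values. PC-9 and HCC827 harbour EGFR d746-750; NCI-H1975 harbours L858R/T790M.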

EGFR (L858R/T790M/C797S) = EGFR (L858R/T790M/C797S) (Homo sapiens, UniProt P00533, C797S/L858R/T790M); assay: HotSpot radiometric kinase assay, inhibition of EGFR L858R/T790M/C797S mutant; format: biochemical; details: 33P ATP, room temperature, 120 m
Description: as §5, §6

[5] = target: T3, pEGFR, PC-9 cells (d746-750 EGFR) (Homo sapiens, UniProt P00533, DEL746-750); assay: Cellular EGFR phosphorylation assay (LANCE Ultra TR-FRET) in PC-9 cells; format: cell-based; details: 4 hours at 37° C., read-out: PC-9 pEGFR IC50
T3 construct: pEGFR (Tyr1068) TR-FRET
Description: as §3, §4

PC-9 cells = assay: 5-Day CellTiter Glo (CTG) cell proliferation assay, PC-9; format: cell-based; details: Homo sapiens; PC-9 cells (d746-750 EGFR), 5-day CTG proliferation, 120 hours; read-out: PC-9 IC50
Method in brief: as §7

HCC827 cells = assay: 5-Day CellTiter Glo (CTG) cell proliferation assay, HCC827; format: cell-based; details: Homo sapiens; HCC827 cells (d746-750 EGFR), 5-day CTG proliferation, 120 hours; read-out: HCC827 IC50
Method in brief: as §7

EGFR (D770_N771insNPG) = EGFR (D770_N771insNPG) (Homo sapiens, UniProt P00533, INS770NPG); assay: HotSpot radiometric kinase assay, inhibition of EGFR (D770_N771insNPG) mutant; format: biochemical; details: 33P ATP, room temperature, 120 m
Description: as §5, §6

T1 sequence (P00533 25-1210): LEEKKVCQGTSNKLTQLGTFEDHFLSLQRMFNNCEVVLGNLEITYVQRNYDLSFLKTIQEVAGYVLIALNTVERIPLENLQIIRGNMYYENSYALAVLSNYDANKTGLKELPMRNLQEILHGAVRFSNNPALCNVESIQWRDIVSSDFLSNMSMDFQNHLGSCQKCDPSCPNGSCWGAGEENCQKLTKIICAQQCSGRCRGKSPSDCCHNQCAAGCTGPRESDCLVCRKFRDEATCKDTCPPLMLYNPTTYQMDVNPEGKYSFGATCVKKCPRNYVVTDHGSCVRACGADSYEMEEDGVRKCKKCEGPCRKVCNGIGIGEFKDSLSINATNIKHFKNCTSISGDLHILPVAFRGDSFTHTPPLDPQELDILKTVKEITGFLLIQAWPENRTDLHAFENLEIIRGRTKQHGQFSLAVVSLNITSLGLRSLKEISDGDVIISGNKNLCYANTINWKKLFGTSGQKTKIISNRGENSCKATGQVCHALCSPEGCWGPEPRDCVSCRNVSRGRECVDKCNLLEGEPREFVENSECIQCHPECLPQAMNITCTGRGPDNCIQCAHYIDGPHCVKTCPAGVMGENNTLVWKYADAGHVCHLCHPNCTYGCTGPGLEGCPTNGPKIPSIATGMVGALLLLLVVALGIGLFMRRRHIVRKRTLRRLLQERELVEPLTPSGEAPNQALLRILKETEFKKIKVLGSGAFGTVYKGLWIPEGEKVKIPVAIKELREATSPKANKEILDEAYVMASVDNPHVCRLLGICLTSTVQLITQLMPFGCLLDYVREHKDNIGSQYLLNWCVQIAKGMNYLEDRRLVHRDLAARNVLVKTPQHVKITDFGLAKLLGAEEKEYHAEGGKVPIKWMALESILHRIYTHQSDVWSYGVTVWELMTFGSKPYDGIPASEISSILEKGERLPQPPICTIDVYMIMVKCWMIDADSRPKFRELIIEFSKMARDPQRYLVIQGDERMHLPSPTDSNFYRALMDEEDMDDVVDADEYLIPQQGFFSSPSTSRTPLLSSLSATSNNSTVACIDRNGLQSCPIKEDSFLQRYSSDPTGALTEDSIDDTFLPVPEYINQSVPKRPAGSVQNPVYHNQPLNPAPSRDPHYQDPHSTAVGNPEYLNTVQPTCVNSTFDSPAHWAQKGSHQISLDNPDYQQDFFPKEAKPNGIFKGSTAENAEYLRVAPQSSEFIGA
T3 sequence (P00533 with tags, fused parts or gaps DEL746-750): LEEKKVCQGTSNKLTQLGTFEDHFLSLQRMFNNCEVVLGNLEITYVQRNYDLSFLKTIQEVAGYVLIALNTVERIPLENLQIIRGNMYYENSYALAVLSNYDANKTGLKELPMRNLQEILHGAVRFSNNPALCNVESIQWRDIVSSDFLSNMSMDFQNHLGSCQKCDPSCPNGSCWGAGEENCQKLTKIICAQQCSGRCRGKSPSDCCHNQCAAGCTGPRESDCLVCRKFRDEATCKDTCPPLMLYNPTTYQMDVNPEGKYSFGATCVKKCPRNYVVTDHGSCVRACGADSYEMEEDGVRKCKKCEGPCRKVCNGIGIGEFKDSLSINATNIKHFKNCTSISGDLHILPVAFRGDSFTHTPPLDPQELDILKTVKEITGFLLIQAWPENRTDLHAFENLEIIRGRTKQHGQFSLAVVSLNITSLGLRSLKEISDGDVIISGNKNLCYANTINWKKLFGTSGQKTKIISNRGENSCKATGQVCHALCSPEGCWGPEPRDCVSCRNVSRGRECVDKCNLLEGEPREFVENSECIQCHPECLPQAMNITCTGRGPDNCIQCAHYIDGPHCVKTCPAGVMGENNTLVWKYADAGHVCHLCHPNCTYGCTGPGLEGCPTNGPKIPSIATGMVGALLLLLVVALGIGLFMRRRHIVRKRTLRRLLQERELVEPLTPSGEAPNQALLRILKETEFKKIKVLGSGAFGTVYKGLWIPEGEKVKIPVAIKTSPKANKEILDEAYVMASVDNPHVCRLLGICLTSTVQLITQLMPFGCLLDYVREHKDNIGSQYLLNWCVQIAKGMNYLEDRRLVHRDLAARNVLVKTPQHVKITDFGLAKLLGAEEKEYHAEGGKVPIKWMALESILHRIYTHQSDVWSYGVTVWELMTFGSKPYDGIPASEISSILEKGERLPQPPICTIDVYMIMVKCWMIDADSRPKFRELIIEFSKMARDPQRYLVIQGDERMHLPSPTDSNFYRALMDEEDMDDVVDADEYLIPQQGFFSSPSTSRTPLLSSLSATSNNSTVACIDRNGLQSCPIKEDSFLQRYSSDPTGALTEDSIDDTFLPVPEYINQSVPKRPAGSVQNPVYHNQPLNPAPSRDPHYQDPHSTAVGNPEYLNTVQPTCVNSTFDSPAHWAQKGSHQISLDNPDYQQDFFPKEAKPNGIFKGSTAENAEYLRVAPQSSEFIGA
Sequence of EGFR (D746-750) (P00533 with tags, fused parts or gaps DEL746-750): as above
Sequence of EGFR (D770_N771insNPG) (P00533 with tags, fused parts or gaps INS770NPG limits assumed): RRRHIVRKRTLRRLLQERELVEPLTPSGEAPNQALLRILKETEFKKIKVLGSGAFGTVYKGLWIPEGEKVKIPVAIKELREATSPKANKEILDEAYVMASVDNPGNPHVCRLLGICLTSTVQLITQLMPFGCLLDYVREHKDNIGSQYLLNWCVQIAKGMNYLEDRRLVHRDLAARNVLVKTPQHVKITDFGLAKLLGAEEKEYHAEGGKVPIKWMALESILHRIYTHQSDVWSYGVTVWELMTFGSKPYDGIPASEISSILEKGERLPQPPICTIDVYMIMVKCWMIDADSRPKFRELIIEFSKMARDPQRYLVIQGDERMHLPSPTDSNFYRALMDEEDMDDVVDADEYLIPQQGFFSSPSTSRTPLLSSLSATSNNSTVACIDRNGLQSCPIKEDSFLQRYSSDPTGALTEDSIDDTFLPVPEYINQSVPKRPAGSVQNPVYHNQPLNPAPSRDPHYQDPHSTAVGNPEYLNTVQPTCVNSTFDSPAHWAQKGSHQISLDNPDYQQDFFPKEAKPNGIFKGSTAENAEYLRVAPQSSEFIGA

IC50 [1] [nM]	IC50 [2] [nM]	IC50 (EGFR (D746-750/C797S)) [nM]	IC50 (EGFR (D746-750)) [nM]	IC50 [3] [nM]	IC50 [4] [nM]	IC50 (NCI-H1975 cells) [nM]	IC50 (EGFR (L858R/T790M/C797S)) [nM]	IC50 [5] [nM]	IC50 (PC-9 cells) [nM]	IC50 (HCC827 cells) [nM]	IC50 (EGFR (D770_N771insNPG)) [nM]	Structure (SMILES)
2.6	442	1.44	0.59	2.81	17.7	74.9	1.36	789	115	6.03	3.07	CC(C)Oc1nn(CCO)c2c1/C=C/c1n[nH]c3cnc(cc13)-c1cnn(C)c1OC[C@H](C)N(C(C)C)C2 [Ex. 4, 2-[(11S,17E)-8,11-dimethyl-12-(propan-2-yl)-16-[(propan-2-yl)oxy]-2,8,10,11,12,13-hexahydro-14H-5,3-(azenometheno)tripyrazolo[3,4-f:3′,4′-j:4″,3″-n][1,4]oxazacyclopentadecin-14-yl]ethan-1-ol]
3.72	119	0.78	0.27	25.9	41.6	358	0.29	65.1	226	11.6	2.23	Cc1nn(C)c2c1-c1cc3c(n[nH]c3cn1)/C=C/c1c(OCC#N)nn(CCO)c1CN(C)[C@@H](C)CO2 [Ex. 31]
–	57.3	1.09	0.36	–	3.31	9.62	0.6	2.38	13.8	2.7	0.39	Cc1nn(C)c2c1-c1cc3c(n[nH]c3c(C)n1)/C=C/c1c(OCC#N)nn(CCO)c1CN(C)C[C@H](C)O2 [Ex. 63, {[(10S,17E)-14-(2-hydroxyethyl)-6,8,10,12,20-pentamethyl-2,10,11,12,13,14-hexahydro-8H-5,3-(azenometheno)tripyrazolo[3,4-f:3,4′-j:4″,3″-n][1,4]oxazacyclopentadecin-16-yl]oxy}acetonitrile]
–	29.6	1.2	0.41	–	2.79	26.6	0.82	2.74	5.63	1.02	0.42	Cc1nn(C)c2c1-c1cc3c(n[nH]c3cn1)/C=C/c1c(OCC#N)nn([C@@H](C)CO)c1CN1CCC[C@@H]1CO2 [Ex. 64, {[(8aR,19E)-3-[(2S)-1-hydroxypropan-2-yl]-11,13-dimethyl-3,4,7,8,8a,9,11,17-octahydro-6H-14,16-(azenometheno)tripyrazolo[3,4-f:3′,4′-j:4″,3″-n]pyrrolo[2,1-c][1,4]oxazacyclopentadecin-1-yl]oxy}acetonitrile]
